In US20220363668A1, “ENZYME INHIBITORS” (KALVISTA PHARMACEUTICALS LIMITED, priority 2019, published 2022):

Experiments:
[1] = target: T1, Human Factor XIIa (Homo sapiens, UniProt P00748); assay: Determination of the % Inhibition for FXIIa (IC50, fluorogenic substrate H-DPro-Phe-Arg-AFC); assay type: biochemical; details: Human Factor XIIa (Enzyme Research Laboratories), 25° C.
T1 construct: purchased Enzyme Research Laboratories
T1 sequence (P00748 373-615 limits assumed): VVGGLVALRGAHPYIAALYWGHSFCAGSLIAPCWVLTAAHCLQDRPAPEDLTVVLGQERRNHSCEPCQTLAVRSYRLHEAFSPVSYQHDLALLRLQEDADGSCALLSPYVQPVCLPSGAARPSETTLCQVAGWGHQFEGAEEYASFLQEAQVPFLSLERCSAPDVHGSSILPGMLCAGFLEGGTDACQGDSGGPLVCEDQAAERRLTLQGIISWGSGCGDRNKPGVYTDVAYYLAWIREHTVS
Experimental: Determination of the % Inhibition for FXIIa
Factor XIIa inhibitory activity in vitro was determined using standard published methods (see e.g. Shori et al., Biochem. Pharmacol., 1992,43, 1209; Baeriswyl et al., ACS Chem. Biol., 2015, 10 (8) 1861; Bouckaert et al., European Journal of Medicinal Chemistry 110 (2016) 181). Human Factor XIIa (Enzyme Research Laboratories) was incubated at 25° C. with the fluorogenic substrate H-DPro-Phe-Arg-AFC and various concentrations of the test compound. Residual enzyme activity (initial rate of reaction) was determined by measuring the change in […] at 410 nm and the IC50 value for the test compound was determined.

[2] = target: T2, Human FXIa (Homo sapiens, UniProt P03951); assay: Determination of the % Inhibition for FXIa (IC50, fluorogenic substrate Z-Gly-Pro-Arg-AFC); assay type: biochemical; details: Selectivity, Human FXIa (Enzyme Research Laboratories), 25° C.
T2 construct: purchased Enzyme Research Laboratories
T2 sequence (P03951 388-625 limits assumed): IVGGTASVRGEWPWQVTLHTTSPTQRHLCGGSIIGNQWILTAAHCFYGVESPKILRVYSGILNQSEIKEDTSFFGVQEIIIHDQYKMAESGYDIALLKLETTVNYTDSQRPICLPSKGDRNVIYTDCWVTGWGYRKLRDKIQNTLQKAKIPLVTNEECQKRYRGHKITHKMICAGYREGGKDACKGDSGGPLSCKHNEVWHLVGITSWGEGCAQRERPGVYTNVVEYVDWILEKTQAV
T2 sequence (P03951 19-387 partner limits assumed): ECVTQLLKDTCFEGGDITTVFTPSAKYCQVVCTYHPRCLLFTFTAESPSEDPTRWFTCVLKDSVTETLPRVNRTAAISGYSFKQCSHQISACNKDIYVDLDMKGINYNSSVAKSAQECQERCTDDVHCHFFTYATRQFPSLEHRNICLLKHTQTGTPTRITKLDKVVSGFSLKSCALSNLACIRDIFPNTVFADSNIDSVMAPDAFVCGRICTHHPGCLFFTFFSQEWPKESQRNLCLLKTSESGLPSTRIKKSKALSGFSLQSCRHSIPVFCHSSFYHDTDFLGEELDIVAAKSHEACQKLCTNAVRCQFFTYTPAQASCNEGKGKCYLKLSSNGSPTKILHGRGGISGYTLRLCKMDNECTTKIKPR
Experimental: Determination of the % Inhibition for FXIa
FXIa inhibitory activity in vitro was determined using standard published methods (see e.g. Johansen et al., Int. J. Tiss. Reac. 1986, 8, 185; Shori et al., Biochem. Pharmacol., 1992, 43, 1209; Stürzebecher et al., Biol. Chem. Hoppe-Seyler, 1992, 373, 1025). Human FXIa (Enzyme Research Laboratories) was incubated at 25° C. with the fluorogenic substrate Z-Gly-Pro-Arg-AFC and various concentrations of the test compound. Residual enzyme activity (initial rate of reaction) was determined by measuring the change in fluorescence at 410 nm and the IC50 value for the test compound was determined.

SMILES | IC50 [1] [µM] | IC50 [2] [µM]
CN1CCC(Oc2ccc(NCc3ccc4c(N)nccc4c3)nc2)CC1 [Example 18.01, 6-(((5-((1-Methylpiperidin-4-yl)oxy)pyridin-2-yl)amino)methyl)isoquinolin-1-amine] | 1 to 3 | 36.4
CN1CCC(Oc2cnc(NCc3ccc4c(N)nccc4c3)nc2)CC1 [Example 18.02, 6-[({5-[(1-Methylpiperidin-4-yl)oxy]pyrimidin-2-yl}amino)methyl]isoquinolin-1-amine] | 10 to 40 | –
CN1CCC(OCc2ccc(NCc3ccc4c(N)nccc4c3)nc2)CC1 [Example 18.03, 6-(((5-(((1-Methylpiperidin-4-yl)oxy)methyl)pyridin-2-yl)amino)methyl)isoquinolin-1-amine] | < 1 | > 40
CN1CCC(COc2ccc(NCc3ccc4c(N)nccc4c3)nc2)CC1 [Example 18.04, 6-(((5-((1-Methylpiperidin-4-yl)methoxy)pyridin-2-yl)amino)methyl)isoquinolin-1-amine] | < 1 | > 40
CN1CCC(Oc2cnc(NCc3ccc4c(N)nccc4c3)cn2)CC1 [Example 18.05] | < 1 | 19.9
CN1CCC(Oc2ccc(NCc3ccc4c(N)nccc4c3)nn2)CC1 [Example 18.06] | 1 to 3 | –
Nc1nccc2cc(CNc3ccc(OC4CCNCC4)cc3)ccc12 [Example 18.07] | 1 to 3 | –
CN1CCC(Oc2ccc(NCc3ccc4c(N)nccc4c3)cc2)CC1 [Example 18.08, 6-(((4-((1-Methylpiperidin-4-yl)oxy)phenyl)amino)methyl)isoquinolin-1-amine] | < 1 | > 40
Nc1nccc2cc(CNc3ccc(OCCN4CCOCC4)cn3)ccc12 [Example 18.09, 6-(((5-(2-Morpholinoethoxy)pyridin-2-yl)amino)methyl)isoquinolin-1-amine] | 10 to 40 | –
CN1CCC(COc2cnc(NCc3ccc4c(N)nccc4c3)cn2)CC1 [Example 18.10, 6-(((5-((1-Methylpiperidin-4-yl)methoxy)pyrazin-2-yl)amino)methyl)isoquinolin-1-amine] | < 1 | 24.8
CN1CCC(COc2ccc(NCc3ccc4c(N)nccc4c3)cn2)CC1 [Example 18.11, 6-(((6-((1-Methylpiperidin-4-yl)methoxy)pyridin-3-yl)amino)methyl)isoquinolin-1-amine] | < 1 | 17.9
CN1CCC(COc2ccc(NCc3ccc4c(N)nccc4c3)cn2)CC1 [Example 18.12] | – | 33.1
CN1CCC(CNC(=O)c2ccc(NCc3ccc4c(N)nccc4c3)nc2)CC1 [Example 18.13] | 3 to 10 | –
CN1CCCC(COc2ccc(NCc3ccc4c(N)nccc4c3)nc2)C1 (stereo not shown) [Example 18.14] | 1 to 3 | –
CN1CCC(COc2ccc(NCc3ccc4c(N)nccc4c3)cc2CO)CC1 [Example 18.15, (5-(((1-Aminoisoquinolin-6-yl)methyl)amino)-2-((1-methylpiperidin-4-yl)methoxy)phenyl)methanol] | < 1 | –
CN1CCC(NC(=O)c2ccc(NCc3ccc4c(N)nccc4c3)nc2)CC1 [Example 18.16] | 10 to 40 | –

SMILES | IC50 [1] [µM] | IC50 [2] [µM]
CN1CCC(COc2ccc(NCc3ccc4c(N)nccc4c3)cc2CCO)CC1 [Example 18.17] | < 1 | –
CN1CCC(COc2ccc(NCc3ccc4c(N)nccc4c3)cc2)CC1 [Example 18.18, 6-(((4-((1-Methylpiperidin-4-yl)methoxy)phenyl)amino)methyl)isoquinolin-1-amine] | < 1 | –
Nc1nccc2cc(CNc3ccc(COC4CCNCC4)cn3)ccc12 [Example 18.19, 6-(((5-((Piperidin-4-yloxy)methyl)pyridin-2-yl)amino)methyl)isoquinolin-1-amine] | 3 to 10 | –
CN1CCC(CNC(=O)c2cccc(NCc3ccc4c(N)nccc4c3)n2)CC1 [Example 18.201, 6-(((1-Aminoisoquinolin-6-yl)methyl)amino)-N-((1-methylpiperidin-4-yl)methyl)picolinamide] | 3 to 10 | –
CN1CCC(Oc2ccnc(NCc3ccc4c(N)nccc4c3)c2)CC1 [Example 18.202, 6-(((4-((1-methylpiperidin-4-yl)oxy)pyridin-2-yl)amino)methyl)isoquinolin-1-amine] | < 1 | > 40
CN1CCC(Oc2cccc(NCc3ccc4c(N)nccc4c3)n2)CC1 [Example 18.203] | 10 to 40 | –
CN1CCC(NC(=O)c2ccnc(NCc3ccc4c(N)nccc4c3)c2)CC1 [Example 18.204, 2-(((1-Aminoisoquinolin-6-yl)methyl)amino)-N-(1-methylpiperidin-4-yl)isonicotinamide] | 3 to 10 | –
CN1CCN(C(=O)c2ccnc(NCc3ccc4c(N)nccc4c3)c2)CC1 [Example 18.205] | 10 to 40 | –
CN1CCC(OCc2ccnc(NCc3ccc4c(N)nccc4c3)c2)CC1 [Example 18.206, 6-(((4-(((1-Methylpiperidin-4-yl)oxy)methyl)pyridin-2-yl)amino)methyl)isoquinolin-1-amine] | 1 to 3 | –
CN1CCC(Oc2cncc(NCc3ccc4c(N)nccc4c3)n2)CC1 [Example 18.207, 6-(((6-((1-Methylpiperidin-4-yl)oxy)pyrazin-2-yl)amino)methyl)isoquinolin-1-amine] | 10 to 40 | –
Nc1nccc2cc(CNc3cc(OCCN4CCOCC4)ccn3)ccc12 [Example 18.208] | 10 to 40 | –
CN1CCC(Oc2cc(NCc3ccc4c(N)nccc4c3)ncn2)CC1 [Example 18.209] | 1 to 3 | –
CN1CCCC(Oc2ccnc(NCc3ccc4c(N)nccc4c3)c2)C1 (stereo not shown) [Example 18.210] | 1 to 3 | –
CN1CCC(Oc2cccc(NCc3ccc4c(N)nccc4c3)c2)CC1 [Example 18.211] | 1 to 3 | –
CN1CCC(Oc2cncc(NCc3ccc4c(N)nccc4c3)c2)CC1 [Example 18.212] | 1 to 3 | –
Nc1nccc2cc(CNc3cc(OC4CCNCC4)ccn3)ccc12 [Example 18.213, 6-(((4-(Piperidin-4-yloxy)pyridin-2-yl)amino)methyl)isoquinolin-1-amine] | 3 to 10 | –
